In paper PMC6499206, “Quantification of Volatile Metabolites Derived From Garlic (Allium sativum) in Human Urine” (Frontiers in Nutrition, 2019):

Test: Quantification of garlic-derived metabolites in human urine after ingestion of 3 g raw garlic (SIDA, SAFE, HRGC-MS / HRGC-GC-MS)
Assay type: in vivo
Details: 3 g raw garlic
Text: Human urine samples were obtained from 18 volunteers (age 22–38 years, mean 27 years; 11 females, 7 males); thereby, one volunteer conducted the whole experimental series twice. At the time of examination, volunteers reported no known illness that might have potentially influenced the metabolism or the excretion of urine. The test persons were instructed to avoid foods that were rich in sulfur-containing substances at the testing day as well as 2 days preceding the testing day, namely garlic, onion, wild garlic, chives, cabbage, and leek, and were only allowed to consume the garlic sample provided in the course of the experiments. Additionally, subjects were asked to keep records of the food (including food supplements) and beverages they consumed during these 3 testing days. Generally, the overall panelists' requirements were in accordance with our previous studies ([5], [16]).
On the sampling day, the outer garlic cloves of a whole garlic bulb were peeled and cut into ~3 mm cubes by using a garlic cutter (Genius GmbH, Limburg/Lahn, Germany). Subsequently these cubes were thoroughly mixed and aliquoted into 3 g portions. Three to four test persons conducted the experiment at the same day. Each test person was asked to ingest a garlic portion of 3 g. In total, eight consecutive urine samples were provided by each test person, comprising one whole urine set. The samples were collected in sterile brown glass bottles, with sampling times as follows: one sample was provided directly prior to garlic consumption. The series of the second to eighth sample was then obtained at about 0.5, 1, 2, 4, 6, 8, and 24 h after garlic consumption, respectively. Between the first urine sample (prior to garlic consumption) and the seventh urine sample (8 h after garlic consumption) test persons only spent urine at the specific time points mentioned before. Another sample was provided at the next morning (24 h after garlic consumption). Between the samples provided 8 and 24 h after garlic consumption no urine was collected. All samples were immediately placed into a −80°C freezer and were kept frozen until further analysis.
The samples of each set were termed according to their sampling time. The following list provides the time intervals that are related to the respective sample name: • - pre: before garlic consumption • - 0.5 h post: 0.4–0.8 h after garlic consumption • - 1 h post: 0.9–1.3 h after garlic consumption • - 2 h post: 1.8 h−2.2 h after garlic consumption • - 4 h post: 3.8–4.4 h after garlic consumption • - 6 h post: 5.8–6.4 h after garlic consumption • - 8 h post: 7.8–8.4 h after garlic consumption • - 24 h post: 23.8–25.6 h after garlic consumption
A creatinine kit (Labor+Technik Eberhard Lehmann GmbH, Berlin, Germany) was used to determine the creatinine content in each urine sample. The determination principle of this kit is based on the reaction of creatinine with picric acid under basic conditions (Jaffé reaction). The formed complex was detected photometrically at a wavelength of 492 nm.
For quantification purposes, the deuterated standards ^2H3-AMS, ^2H3-AMSO, and ^2H3-AMSO2 were added to the sample and stirred for 10 min. Subsequently, DCM was added in a ratio of 1:2 (DCM/human urine; v/v) and this solution was stirred for further 30 min at room temperature. To isolate the volatile fraction from the urine samples we then applied SAFE-distillation ([17]), thereby distilling the respective samples at 50°C. After completion of the distillation process, 10 mL of DCM were applied in each case to rinse the SAFE apparatus and to ensure complete transition of the volatile compounds. This process was repeated with another 10 mL of DCM. After thawing, the obtained aqueous distillate phase was extracted three times with 25 mL DCM. The organic phases were combined, dried over anhydrous Na2SO4 and concentrated to a total volume of 100 μL by means of Vigreux distillation and subsequent micro-distillation at 50°C. […]

C=CCS(C)(=O)=O [AMSO2, allyl methyl sulfone]
metabolite concentration in urine (U IV, 6 h post (6.08 h)): 96.7 µg/kg
metabolite concentration in urine, creatinine-normalized (U IV, 6 h post (6.08 h)): 6.9 µg/mmol creatinine
metabolite concentration in urine (U IV, 8 h post (8.05 h)): 73.4 µg/kg
metabolite concentration in urine, creatinine-normalized (U IV, 8 h post (8.05 h)): 15.4 µg/mmol creatinine
metabolite concentration in urine (U IV, 24 h post (24.03 h)): 6.8 µg/kg
metabolite concentration in urine, creatinine-normalized (U IV, 24 h post (24.03 h)): 0.7 µg/mmol creatinine
metabolite concentration in urine (U IV, pre (-0.05 h)): < LOD^3
metabolite concentration in urine, creatinine-normalized (U IV, pre (-0.05 h)): < LOD^3
metabolite concentration in urine (U IX, 0.5 h post (0.67 h)): 54.8 µg/kg
metabolite concentration in urine, creatinine-normalized (U IX, 0.5 h post (0.67 h)): 52.1 µg/mmol creatinine
metabolite concentration in urine (U IX, 1 h post (1.17 h)): 161.7 µg/kg
metabolite concentration in urine, creatinine-normalized (U IX, 1 h post (1.17 h)): 167.7 µg/mmol creatinine
metabolite concentration in urine (U IX, 2 h post (1.83 h)): 248.6 µg/kg
metabolite concentration in urine, creatinine-normalized (U IX, 2 h post (1.83 h)): 236.2 µg/mmol creatinine
metabolite concentration in urine (U IX, 4 h post (4.17 h)): 367.0 µg/kg
metabolite concentration in urine, creatinine-normalized (U IX, 4 h post (4.17 h)): 70.5 µg/mmol creatinine
metabolite concentration in urine (U IX, 6 h post (6.08 h)): 343.5 µg/kg
metabolite concentration in urine, creatinine-normalized (U IX, 6 h post (6.08 h)): 107.8 µg/mmol creatinine
metabolite concentration in urine (U IX, 8 h post (8.08 h)): 269.3 µg/kg
metabolite concentration in urine, creatinine-normalized (U IX, 8 h post (8.08 h)): 19.2 µg/mmol creatinine
metabolite concentration in urine (U IX, 24 h post (24.00 h)): 5.9 µg/kg
metabolite concentration in urine, creatinine-normalized (U IX, 24 h post (24.00 h)): 0.7 µg/mmol creatinine
metabolite concentration in urine (U IX, pre (-0.08 h)): < LOD^3
metabolite concentration in urine, creatinine-normalized (U IX, pre (-0.08 h)): < LOD^3
metabolite concentration in urine (U V, 0.5 h post (0.50 h)): 33.9 µg/kg
metabolite concentration in urine, creatinine-normalized (U V, 0.5 h post (0.50 h)): 49.6 µg/mmol creatinine
metabolite concentration in urine (U V, 1 h post (1.00 h)): 80.4 µg/kg
metabolite concentration in urine, creatinine-normalized (U V, 1 h post (1.00 h)): 96.0 µg/mmol creatinine
metabolite concentration in urine (U V, 2 h post (2.00 h)): 111.3 µg/kg
metabolite concentration in urine, creatinine-normalized (U V, 2 h post (2.00 h)): 132.8 µg/mmol creatinine
metabolite concentration in urine (U V, 4 h post (4.00 h)): 142.9 µg/kg
metabolite concentration in urine, creatinine-normalized (U V, 4 h post (4.00 h)): 46.1 µg/mmol creatinine
metabolite concentration in urine (U V, 6 h post (6.00 h)): 151.3 µg/kg
metabolite concentration in urine, creatinine-normalized (U V, 6 h post (6.00 h)): 30.1 µg/mmol creatinine
metabolite concentration in urine (U V, 8 h post (8.00 h)): 99.4 µg/kg
metabolite concentration in urine, creatinine-normalized (U V, 8 h post (8.00 h)): 45.8 µg/mmol creatinine
metabolite concentration in urine (U V, 24 h post (24.00 h)): 5.1 µg/kg
metabolite concentration in urine, creatinine-normalized (U V, 24 h post (24.00 h)): 0.9 µg/mmol creatinine
metabolite concentration in urine (U V, pre (-0.05 h)): < LOD^3
metabolite concentration in urine, creatinine-normalized (U V, pre (-0.05 h)): < LOD^3
metabolite concentration in urine (U VI, 0.5 h post (0.50 h)): 74.1 µg/kg
metabolite concentration in urine, creatinine-normalized (U VI, 0.5 h post (0.50 h)): 33.9 µg/mmol creatinine
metabolite concentration in urine (U VI, 1 h post (1.00 h)): 87.6 µg/kg
metabolite concentration in urine, creatinine-normalized (U VI, 1 h post (1.00 h)): 73.1 µg/mmol creatinine
metabolite concentration in urine (U VI, 2 h post (2.00 h)): 136.6 µg/kg
metabolite concentration in urine, creatinine-normalized (U VI, 2 h post (2.00 h)): 123.2 µg/mmol creatinine
metabolite concentration in urine (U VI, 4 h post (4.00 h)): 150.1 µg/kg
metabolite concentration in urine, creatinine-normalized (U VI, 4 h post (4.00 h)): 43.2 µg/mmol creatinine
metabolite concentration in urine (U VI, 6 h post (6.00 h)): 147.1 µg/kg
metabolite concentration in urine, creatinine-normalized (U VI, 6 h post (6.00 h)): 27.1 µg/mmol creatinine
metabolite concentration in urine (U VI, 8 h post (8.00 h)): 106.7 µg/kg
metabolite concentration in urine, creatinine-normalized (U VI, 8 h post (8.00 h)): 21.2 µg/mmol creatinine
metabolite concentration in urine (U VI, 24 h post (24.17 h)): 9.2 µg/kg
metabolite concentration in urine, creatinine-normalized (U VI, 24 h post (24.17 h)): 0.6 µg/mmol creatinine
metabolite concentration in urine (U VI, pre (-0.05 h)): < LOD^3
metabolite concentration in urine, creatinine-normalized (U VI, pre (-0.05 h)): < LOD^3
metabolite concentration in urine (U VII, 0.5 h post (0.50 h)): 44.1 µg/kg
metabolite concentration in urine, creatinine-normalized (U VII, 0.5 h post (0.50 h)): 41.3 µg/mmol creatinine
